Series [1] addresses T1, Proto-oncogene tyrosine-protein kinase Src (Homo sapiens, UniProt P12931). In words: Inhibition of recombinant GST-tagged c-Src catalytic domain (unknown origin) using pEY (4:1) as substrate incubated for 120 mins in presence of 33P-labeled ATP.
The test system of a further series is A2058. Description: Antitumor activity against human A2058 cells xenografted in NSG mouse assessed as tumor growth inhibition at 25 mg/kg, po administered twice daily for 18 days relative to control. The class given is functional. As to conditions: A2058, 432 h, time 18 day, read-out: TGI.
Series [2] concerns the target T2, Tyrosine-protein kinase JAK1 (Homo sapiens, UniProt P23458). Description: Inhibition of recombinant GST-tagged JAK1 catalytic domain (unknown origin) using pEY (4:1) as substrate incubated for 120 mins in presence of 33P-labeled ATP.
In series [3] the target is T3, Tyrosine-protein kinase JAK2 (Homo sapiens, UniProt O60674). In words: Inhibition of recombinant GST-tagged JAK2 catalytic domain (unknown origin) using pEY (4:1) as substrate incubated for 120 mins in presence of 33P-labeled ATP.
Series [4] has as its target T4, Non-receptor tyrosine-protein kinase TYK2 (Homo sapiens, UniProt P29597). Description: Inhibition of recombinant GST-tagged TYK2 catalytic domain (unknown origin) using pEY (4:1) as substrate incubated for 120 mins in presence of 33P-labeled ATP.
Series [5] addresses T2, Tyrosine-protein kinase JAK1. In words: Inhibition of recombinant JAK1 (unknown origin) incubated for 120 mins in presence of [33P]-ATP by hotspot assay.
Series [6] addresses T3, Tyrosine-protein kinase JAK2. In words: Inhibition of recombinant JAK2 (unknown origin) incubated for 120 mins in presence of [33P]-ATP by hotspot assay.
In the next series the test system is MIA PaCa-2. Description: Antiproliferative activity against human MIA PaCa-2 cells assessed as inhibition of cell growth incubated for 48 hrs by MTS assay. The class given is functional, cell-based. As to conditions: MIA PaCa-2, 48 h.
The target of series [7] is T1, Proto-oncogene tyrosine-protein kinase Src. Description: Inhibition of recombinant c-Src (unknown origin) incubated for 120 mins in presence of [33P]-ATP by hotspot assay.
In series [8] the target is T4, Non-receptor tyrosine-protein kinase TYK2. Description: Inhibition of recombinant TYK2 (unknown origin) incubated for 120 mins in presence of [33P]-ATP by hotspot assay.
Series [9] deals with T3, Tyrosine-protein kinase JAK2. Description: Inhibition of JAK2 (unknown origin) using FAM-labeled peptide as substrate preincubated with compound for 10 mins followed by substrate addition and measured after 60 mins in presence of ATP.
In series [10] the target is T5, Receptor-type tyrosine-protein kinase FLT3 (Homo sapiens, UniProt P36888).
T5 sequence (P36888 whole entry): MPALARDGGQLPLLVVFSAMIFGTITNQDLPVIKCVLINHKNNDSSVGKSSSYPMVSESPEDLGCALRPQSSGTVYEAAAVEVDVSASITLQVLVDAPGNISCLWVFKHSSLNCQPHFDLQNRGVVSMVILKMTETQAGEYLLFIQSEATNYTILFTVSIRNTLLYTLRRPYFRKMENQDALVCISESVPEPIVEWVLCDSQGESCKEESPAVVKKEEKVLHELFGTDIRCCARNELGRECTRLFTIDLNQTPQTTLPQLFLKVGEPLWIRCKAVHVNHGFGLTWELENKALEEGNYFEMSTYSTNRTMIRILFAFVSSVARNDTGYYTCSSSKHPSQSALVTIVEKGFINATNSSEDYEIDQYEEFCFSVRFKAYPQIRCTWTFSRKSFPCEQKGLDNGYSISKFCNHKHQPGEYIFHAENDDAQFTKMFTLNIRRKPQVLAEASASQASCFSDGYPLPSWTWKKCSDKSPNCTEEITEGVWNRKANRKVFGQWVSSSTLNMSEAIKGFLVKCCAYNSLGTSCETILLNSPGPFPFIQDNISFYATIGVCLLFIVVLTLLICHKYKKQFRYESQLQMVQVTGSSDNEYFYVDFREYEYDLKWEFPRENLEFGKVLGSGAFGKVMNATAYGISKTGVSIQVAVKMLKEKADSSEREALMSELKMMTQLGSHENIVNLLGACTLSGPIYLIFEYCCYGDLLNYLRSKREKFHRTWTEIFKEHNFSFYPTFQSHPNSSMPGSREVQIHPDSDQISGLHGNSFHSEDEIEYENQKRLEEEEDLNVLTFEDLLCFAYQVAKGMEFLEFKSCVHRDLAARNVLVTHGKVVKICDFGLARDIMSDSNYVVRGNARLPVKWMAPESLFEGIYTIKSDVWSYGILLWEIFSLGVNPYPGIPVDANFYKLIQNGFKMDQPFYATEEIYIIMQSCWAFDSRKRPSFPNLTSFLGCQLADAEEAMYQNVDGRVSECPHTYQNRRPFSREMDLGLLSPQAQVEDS
Description: Inhibition of FLT3 (unknown origin) using FAM-labeled peptide as substrate preincubated with compound for 10 mins followed by substrate addition and measured after 60 mins in presence of ATP.

In another series the test system is MOLM-13. Description: Antiproliferative activity against human MOLM-13 cells assessed as inhibition of cell growth incubated for 48 hrs by CCK-8 assay. The class given is functional, cell-based. As to conditions: MOLM-13, 48 h.
The nature of series [11]: Metabolic stability in rat liver microsomes assessed as half life by LC-MS/MS analysis. The class given is ADME, Microsome.
The test system of another series is HEL. In words: Antiproliferative activity against HEL cells assessed as inhibition of cell growth incubated for 48 hrs by CCK-8 assay. The class given is functional, cell-based. The settings on record: Homo sapiens.
Series [12] has as its target T3, Tyrosine-protein kinase JAK2.
The target of series [13] is T5, Receptor-type tyrosine-protein kinase FLT3.

Bounds are passed on as bounds.

T3 sequence (O60674 whole entry, the tested form may be a part): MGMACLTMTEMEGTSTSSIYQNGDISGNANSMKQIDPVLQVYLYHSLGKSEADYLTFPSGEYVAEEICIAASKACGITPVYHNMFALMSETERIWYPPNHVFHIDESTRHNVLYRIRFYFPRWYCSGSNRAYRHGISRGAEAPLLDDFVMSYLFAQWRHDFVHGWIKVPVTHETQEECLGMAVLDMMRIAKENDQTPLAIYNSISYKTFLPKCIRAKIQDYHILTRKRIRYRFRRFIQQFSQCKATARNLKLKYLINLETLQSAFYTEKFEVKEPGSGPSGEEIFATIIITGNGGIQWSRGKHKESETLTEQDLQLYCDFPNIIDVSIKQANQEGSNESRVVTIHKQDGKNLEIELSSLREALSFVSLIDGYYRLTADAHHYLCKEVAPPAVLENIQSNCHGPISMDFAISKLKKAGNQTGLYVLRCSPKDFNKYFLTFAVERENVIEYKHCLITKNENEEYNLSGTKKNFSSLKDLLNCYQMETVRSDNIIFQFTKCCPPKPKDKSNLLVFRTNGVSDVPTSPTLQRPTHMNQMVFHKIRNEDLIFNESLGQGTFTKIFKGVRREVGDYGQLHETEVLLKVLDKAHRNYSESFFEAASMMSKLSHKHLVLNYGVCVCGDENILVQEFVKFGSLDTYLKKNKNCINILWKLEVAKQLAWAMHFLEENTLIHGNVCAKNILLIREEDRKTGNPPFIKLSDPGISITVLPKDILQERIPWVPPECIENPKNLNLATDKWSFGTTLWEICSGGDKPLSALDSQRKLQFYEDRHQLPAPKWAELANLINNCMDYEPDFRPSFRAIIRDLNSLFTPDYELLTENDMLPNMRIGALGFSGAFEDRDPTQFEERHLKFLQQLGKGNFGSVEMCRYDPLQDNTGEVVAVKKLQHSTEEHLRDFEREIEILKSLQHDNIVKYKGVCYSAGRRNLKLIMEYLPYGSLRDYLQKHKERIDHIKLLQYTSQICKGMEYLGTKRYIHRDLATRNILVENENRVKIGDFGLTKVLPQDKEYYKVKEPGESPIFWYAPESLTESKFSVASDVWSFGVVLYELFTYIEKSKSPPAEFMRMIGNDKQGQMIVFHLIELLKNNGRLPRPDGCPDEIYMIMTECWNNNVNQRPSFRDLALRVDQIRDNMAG
T1 sequence (P12931 2-536 limits assumed): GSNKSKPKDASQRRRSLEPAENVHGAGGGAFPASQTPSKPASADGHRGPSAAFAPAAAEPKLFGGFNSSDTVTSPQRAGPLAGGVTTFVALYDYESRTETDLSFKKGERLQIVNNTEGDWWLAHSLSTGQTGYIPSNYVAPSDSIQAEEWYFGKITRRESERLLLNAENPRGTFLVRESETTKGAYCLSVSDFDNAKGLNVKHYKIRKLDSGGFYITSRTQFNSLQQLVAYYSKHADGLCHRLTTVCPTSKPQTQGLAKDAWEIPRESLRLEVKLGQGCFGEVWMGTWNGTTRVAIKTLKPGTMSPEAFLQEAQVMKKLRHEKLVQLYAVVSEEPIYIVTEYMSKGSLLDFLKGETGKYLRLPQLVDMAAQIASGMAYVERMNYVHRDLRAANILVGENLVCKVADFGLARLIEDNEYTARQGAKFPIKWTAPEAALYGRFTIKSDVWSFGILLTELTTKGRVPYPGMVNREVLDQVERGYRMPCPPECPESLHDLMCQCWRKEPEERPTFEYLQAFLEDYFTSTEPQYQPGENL
T4 sequence (P29597 whole entry, the tested form may be a part): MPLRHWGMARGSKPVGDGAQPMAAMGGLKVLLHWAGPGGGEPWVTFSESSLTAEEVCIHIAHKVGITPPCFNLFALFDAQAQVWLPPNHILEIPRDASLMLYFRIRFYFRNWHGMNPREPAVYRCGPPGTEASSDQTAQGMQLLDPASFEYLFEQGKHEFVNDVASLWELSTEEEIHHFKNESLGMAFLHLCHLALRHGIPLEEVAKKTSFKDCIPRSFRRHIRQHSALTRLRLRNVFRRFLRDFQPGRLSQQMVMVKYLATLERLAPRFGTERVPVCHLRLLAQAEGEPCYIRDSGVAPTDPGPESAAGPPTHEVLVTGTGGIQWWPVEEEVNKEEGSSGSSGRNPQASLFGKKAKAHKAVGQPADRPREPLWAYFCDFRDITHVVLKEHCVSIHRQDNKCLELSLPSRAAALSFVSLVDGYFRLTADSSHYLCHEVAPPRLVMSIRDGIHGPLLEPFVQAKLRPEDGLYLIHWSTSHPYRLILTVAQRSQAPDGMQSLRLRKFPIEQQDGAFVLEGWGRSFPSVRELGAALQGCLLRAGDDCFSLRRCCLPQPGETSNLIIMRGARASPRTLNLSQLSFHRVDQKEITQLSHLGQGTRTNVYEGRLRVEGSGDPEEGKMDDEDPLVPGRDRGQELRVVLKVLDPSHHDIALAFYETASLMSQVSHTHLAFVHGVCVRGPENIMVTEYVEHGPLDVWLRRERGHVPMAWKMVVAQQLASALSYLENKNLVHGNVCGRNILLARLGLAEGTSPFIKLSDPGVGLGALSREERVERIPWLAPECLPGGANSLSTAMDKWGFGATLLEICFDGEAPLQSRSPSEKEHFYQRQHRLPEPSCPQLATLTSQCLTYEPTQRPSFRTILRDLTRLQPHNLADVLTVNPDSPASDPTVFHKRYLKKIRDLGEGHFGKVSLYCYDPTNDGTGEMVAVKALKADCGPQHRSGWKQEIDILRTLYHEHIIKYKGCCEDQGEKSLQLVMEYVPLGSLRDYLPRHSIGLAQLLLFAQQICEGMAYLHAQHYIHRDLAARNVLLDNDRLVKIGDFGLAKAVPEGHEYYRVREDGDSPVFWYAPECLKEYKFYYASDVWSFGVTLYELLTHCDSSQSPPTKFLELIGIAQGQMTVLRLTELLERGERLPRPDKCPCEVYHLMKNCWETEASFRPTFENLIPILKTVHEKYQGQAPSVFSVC
T2 sequence (P23458 whole entry, the tested form may be a part): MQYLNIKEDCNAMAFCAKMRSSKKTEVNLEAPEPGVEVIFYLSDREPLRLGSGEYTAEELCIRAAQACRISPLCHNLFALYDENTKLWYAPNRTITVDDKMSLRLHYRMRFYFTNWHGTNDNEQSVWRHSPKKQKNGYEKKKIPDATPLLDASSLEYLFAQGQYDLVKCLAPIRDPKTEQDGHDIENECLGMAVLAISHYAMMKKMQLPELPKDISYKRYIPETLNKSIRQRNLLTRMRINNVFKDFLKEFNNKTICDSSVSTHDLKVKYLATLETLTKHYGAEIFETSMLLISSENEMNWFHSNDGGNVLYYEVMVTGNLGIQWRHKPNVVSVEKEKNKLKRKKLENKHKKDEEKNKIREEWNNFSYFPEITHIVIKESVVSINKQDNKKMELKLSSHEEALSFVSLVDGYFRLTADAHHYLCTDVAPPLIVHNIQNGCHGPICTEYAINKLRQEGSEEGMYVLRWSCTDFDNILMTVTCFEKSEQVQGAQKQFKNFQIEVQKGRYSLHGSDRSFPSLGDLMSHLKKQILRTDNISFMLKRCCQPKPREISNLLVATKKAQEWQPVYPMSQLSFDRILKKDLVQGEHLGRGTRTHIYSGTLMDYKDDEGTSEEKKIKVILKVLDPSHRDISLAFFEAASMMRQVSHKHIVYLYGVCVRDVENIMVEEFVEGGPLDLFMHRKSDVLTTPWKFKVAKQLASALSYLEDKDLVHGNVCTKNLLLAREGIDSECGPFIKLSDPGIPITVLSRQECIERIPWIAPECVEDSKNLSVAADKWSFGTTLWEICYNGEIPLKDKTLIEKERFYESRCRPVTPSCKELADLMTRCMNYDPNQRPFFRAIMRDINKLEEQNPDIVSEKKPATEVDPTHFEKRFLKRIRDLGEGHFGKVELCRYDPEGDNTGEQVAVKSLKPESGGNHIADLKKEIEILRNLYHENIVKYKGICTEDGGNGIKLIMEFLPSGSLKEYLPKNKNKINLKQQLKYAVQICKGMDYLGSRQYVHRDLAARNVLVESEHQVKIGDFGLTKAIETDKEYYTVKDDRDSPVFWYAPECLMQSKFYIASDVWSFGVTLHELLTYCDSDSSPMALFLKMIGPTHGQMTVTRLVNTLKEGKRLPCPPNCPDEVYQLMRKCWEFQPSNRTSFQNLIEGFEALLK

`O=C1Nc2cc(Br)ccc2/C1=C1/Nc2ccccc2/C1=N\OCCN1CCNCC1`: the IC50 came to 0.2 nM in [1], 600 nM in series [2], 28 nM in series [3] and 50 nM in series [4]. In addition, the inhibition in vivo at 25 mg/kg in the series with A2058 stood at 50%.

For `COc1ccc2c(c1)/C(=C1/Nc3ccccc3/C1=N\OCC(O)CO)C(=O)N2` (stereo not given), the IC50 in [5] came to 10.4 nM; in series [6] it was 74.1 nM; in the series on MIA PaCa-2, 680 nM; in series [7], 10.4 nM; in series [8], 0.7 nM.

On to `O=C1Nc2c(Br)cccc2/C1=C1/Nc2ccccc2/C1=N\OCCN1CCNCC1`, for which the IC50 in series [3] is above 10000 nM.

On to `CC(=O)c1ccc(NC(=O)N2CCN(c3ccnc(Nc4ccc(N5CCOCC5)cc4)n3)CC2)cc1`, for which the IC50 in series [9] turned out to be 2.9 nM; in series [10] it was 1.4 nM.

Take `CC(=O)c1ccc(NC(=O)N2CCN(c3nc(Nc4ccc(N5CCOCC5)cc4)ncc3Cl)CC2)cc1`: the IC50 is 19 nM in the series with MOLM-13, 1.8 nM in series [9], 500 nM in the series on HEL and 0.68 nM in series [10]. The half-life in [11] came out at 31 min.

As for `COc1ccc2cc1COC/C=C/COCc1cccc(c1)-c1ccnc(n1)N2`, the IC50 in series [12] was 70 nM; in series [13], 190 nM.
